Test results published in PubChem BioAssay (NCI).
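GI50 is the concentration that inhibits growth by half. TGI is the concentration that stops growth completely.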

What was measured:
Assay in all cases: NCI anticancer screen, dose series, 384-well format; in the data active means GI50 below about 0.43 µM; inactive means the rest
786-0 renal = system: 786-0 renal
A498 renal = system: A498 renal
A549 NSCLC = system: A549 NSCLC
ACHN renal = system: ACHN renal
BT-549 breast = system: BT-549 breast
CAKI-1 renal = system: CAKI-1 renal
CCRF-CEM leukemia = system: CCRF-CEM leukemia
COLO 205 colon = system: COLO 205 colon
DU-145 prostate = system: DU-145 prostate
EKVX NSCLC = system: EKVX NSCLC
HCC-2998 colon = system: HCC-2998 colon
HCT-116 colon = system: HCT-116 colon
HCT-15 colon = system: HCT-15 colon
HL-60(TB) leukemia = system: HL-60(TB) leukemia
HOP-62 NSCLC = system: HOP-62 NSCLC
HOP-92 NSCLC = system: HOP-92 NSCLC
HS 578T breast = system: HS 578T breast
HT29 colon = system: HT29 colon
IGROV1 ovarian = system: IGROV1 ovarian
K-562 leukemia = system: K-562 leukemia
KM12 colon = system: KM12 colon
LOX IMVI melanoma = system: LOX IMVI melanoma
M14 melanoma = system: M14 melanoma
MALME-3M melanoma = system: MALME-3M melanoma
MCF7 breast = system: MCF7 breast
MDA-MB-231 breast = system: MDA-MB-231 breast
MDA-MB-435 melanoma = system: MDA-MB-435 melanoma
MDA-MB-468 breast = system: MDA-MB-468 breast
MOLT-4 leukemia = system: MOLT-4 leukemia
NCI-H226 lung = system: NCI-H226 lung
NCI-H23 lung = system: NCI-H23 lung
NCI-H322M lung = system: NCI-H322M lung
NCI-H460 NSCLC = system: NCI-H460 NSCLC
NCI-H522 lung = system: NCI-H522 lung
NCI/ADR-RES ovarian = system: NCI/ADR-RES ovarian
OVCAR-3 ovarian = system: OVCAR-3 ovarian
OVCAR-4 ovarian = system: OVCAR-4 ovarian
OVCAR-5 ovarian = system: OVCAR-5 ovarian
OVCAR-8 ovarian = system: OVCAR-8 ovarian
PC-3 prostate = system: PC-3 prostate
RXF 393 renal = system: RXF 393 renal
SF-268 CNS = system: SF-268 CNS
SF-295 CNS = system: SF-295 CNS
SF-539 CNS = system: SF-539 CNS
SK-MEL-2 melanoma = system: SK-MEL-2 melanoma
SK-MEL-28 melanoma = system: SK-MEL-28 melanoma
SK-MEL-5 melanoma = system: SK-MEL-5 melanoma
SK-OV-3 ovarian = system: SK-OV-3 ovarian
SN12C renal = system: SN12C renal
SNB-19 CNS = system: SNB-19 CNS
SNB-75 CNS = system: SNB-75 CNS
SR leukemia = system: SR leukemia
SW-620 colon = system: SW-620 colon
T-47D breast = system: T-47D breast
TK-10 renal = system: TK-10 renal
U251 glioblastoma = system: U251 glioblastoma
UACC-257 melanoma = system: UACC-257 melanoma
UACC-62 melanoma = system: UACC-62 melanoma
UO-31 renal = system: UO-31 renal

Cc1nc(N2CCC3(CC2)CO[C@@H](C)[C@H]3N)c(CO)nc1Sc1ccnc(N)c1Cl
38.1 µM: TGI (UACC-257 melanoma)
> 100 µM: TGI (786-0 renal) | TGI (A498 renal) | TGI (A549 NSCLC) | TGI (ACHN renal) | TGI (BT-549 breast) | TGI (CAKI-1 renal) | TGI (COLO 205 colon) | TGI (DU-145 prostate) | TGI (HCT-116 colon) | TGI (HCT-15 colon) | TGI (HOP-62 NSCLC) | TGI (HS 578T breast) | TGI (IGROV1 ovarian) | TGI (KM12 colon) | TGI (LOX IMVI melanoma) | TGI (MCF7 breast) | TGI (MDA-MB-231 breast) | TGI (MDA-MB-435 melanoma) | TGI (MOLT-4 leukemia) | TGI (NCI-H226 lung) | TGI (NCI-H322M lung) | TGI (NCI-H460 NSCLC) | TGI (NCI/ADR-RES ovarian) | TGI (OVCAR-3 ovarian) | TGI (OVCAR-4 ovarian) | TGI (OVCAR-5 ovarian) | TGI (PC-3 prostate) | TGI (SF-268 CNS) | TGI (SF-295 CNS) | TGI (SF-539 CNS) | TGI (SK-MEL-28 melanoma) | TGI (SK-OV-3 ovarian) | TGI (SN12C renal) | TGI (SNB-19 CNS) | TGI (SW-620 colon) | TGI (TK-10 renal) | TGI (U251 glioblastoma) | TGI (UACC-62 melanoma) | TGI (UO-31 renal)
29.5 µM: TGI (HL-60(TB) leukemia)
12.4 µM: TGI (HOP-92 NSCLC)
54.2 µM: TGI (MALME-3M melanoma)
inactive: GI50 ([…]-0 renal) 29.3 µM | GI50 (A498 renal) 1.08 µM | GI50 (A549 NSCLC) 97 µM | GI50 (ACHN renal) 2.03 µM | GI50 (BT-549 breast) 17 µM | GI50 (CCRF-CEM leukemia) 24.5 µM | GI50 (COLO 205 colon) 41.8 µM | GI50 (DU-145 prostate) 97.5 µM | GI50 (EKVX NSCLC) 3.13 µM | GI50 (HCC-2998 colon) 35.5 µM | GI50 (HCT-116 colon) 37.1 µM | GI50 (HCT-15 colon) 69.3 µM | GI50 (HL-60(TB) leukemia) 15.8 µM | GI50 (HOP-62 NSCLC) 54 µM | GI50 (HS 578T breast) 39.4 µM | GI50 (HT29 colon) 27.5 µM | GI50 (IGROV1 ovarian) 0.728 µM | GI50 (LOX IMVI melanoma) 35.5 µM | GI50 (M14 melanoma) 21.3 µM | GI50 (MALME-3M melanoma) 24.2 µM | GI50 (MCF7 breast) 35.1 µM | GI50 (MDA-MB-231 breast) > 100 µM | GI50 (MDA-MB-435 melanoma) > 100 µM | GI50 (MOLT-4 leukemia) 27 µM | GI50 (NCI-H226 lung) 0.714 µM | GI50 (NCI-H460 NSCLC) 41.8 µM | GI50 (NCI/ADR-RES ovarian) 17.7 µM | GI50 (OVCAR-3 ovarian) 35.8 µM | GI50 (OVCAR-4 ovarian) 46.6 µM | GI50 (OVCAR-5 ovarian) 92.7 µM | GI50 (OVCAR-8 ovarian) 17.2 µM | GI50 (PC-3 prostate) 54.4 µM | GI50 (RXF 393 renal) 12.5 µM | GI50 (SF-268 CNS) 91.6 µM | GI50 (SF-295 CNS) 79.8 µM | GI50 (SF-539 CNS) 22.1 µM | GI50 (SK-MEL-2 melanoma) 34.7 µM | GI50 (SK-MEL-28 melanoma) 40.1 µM | GI50 (SK-MEL-5 melanoma) 16 µM | GI50 (SK-OV-3 ovarian) 13 µM | GI50 (SN12C renal) 8.42 µM | GI50 (SNB-19 CNS) 42.1 µM | GI50 (SNB-75 CNS) 13.4 µM | GI50 (SR leukemia) 9.08 µM | GI50 (SW-620 colon) 54.6 µM | GI50 (T-47D breast) 17.5 µM | GI50 (TK-10 renal) 0.819 µM | GI50 (U251 glioblastoma) 15.6 µM | GI50 (UACC-257 melanoma) 19.3 µM | GI50 (UACC-62 melanoma) 31.4 µM | GI50 (UO-31 renal) 11 µM
82.2 µM: TGI (T-47D breast)
42.6 µM: TGI (M14 melanoma)
18.5 µM: TGI (NCI-H522 lung)
active: GI50 (CAKI-1 renal) 0.414 µM | GI50 (HOP-92 NSCLC) 0.115 µM | GI50 (K-562 leukemia) 0.0619 µM | GI50 (KM12 colon) 0.321 µM | GI50 (MDA-MB-468 breast) 0.145 µM | GI50 (NCI-H23 lung) 0.0838 µM | GI50 (NCI-H322M lung) 0.166 µM | GI50 (NCI-H522 lung) 0.044 µM
41.5 µM: TGI (RXF 393 renal)
92.3 µM: TGI (EKVX NSCLC)
95 µM: TGI (HCC-2998 colon)
94.4 µM: TGI (SNB-75 CNS)
20.6 µM: TGI (NCI-H23 lung)
31.3 µM: TGI (SK-MEL-5 melanoma)
50.5 µM: TGI (OVCAR-8 ovarian)
1.39 µM: TGI (MDA-MB-468 breast)
78.1 µM: TGI (SK-MEL-2 melanoma)
15.7 µM: TGI (K-562 leukemia)
71.8 µM: TGI (HT29 colon)
21.5 µM: TGI (SR leukemia)
60.2 µM: TGI (CCRF-CEM leukemia)
